Test system: influenza A virus strain A/Aichi/02/68 (H3N2)
Set-up: species or system non-inbred male white mice
Details: mouse, in vivo, 60 mg/kg

Structure (SMILES): CCOC(=O)c1c(CSc2ccccc2)n(C)c2cc(Br)c(O)c(CN(C)C)c12 [Arbidol 970609]
- Death rate: 10/15
- Increase in MST: 2.6 days
- MST: 9.3 days
- Protection against death (%): 33.3%
